Test results: ChEMBL document CHEMBL4177567, “Antibiotic adjuvants - A strategy to unlock bacterial resistance to antibiotics” (Bioorg Med Chem Lett, 2017)
≈ marks a conversion by molar mass, not a printed value.

Experiments:
[1] = test system: Acinetobacter baumannii; experiment: Antibacterial activity against Acinetobacter baumannii after 20 to 22 hrs by broth microdilution method; type: functional
[2] = target: T1, Beta-lactamase 1 (Bacillus cereus, UniProt P00809); experiment: Inhibition of Bacillus cereus beta-lactamase […] using CENTA as substrate up to 30 mins by Lineweaver-Burk plot analysis
T1 sequence (P00809 whole entry): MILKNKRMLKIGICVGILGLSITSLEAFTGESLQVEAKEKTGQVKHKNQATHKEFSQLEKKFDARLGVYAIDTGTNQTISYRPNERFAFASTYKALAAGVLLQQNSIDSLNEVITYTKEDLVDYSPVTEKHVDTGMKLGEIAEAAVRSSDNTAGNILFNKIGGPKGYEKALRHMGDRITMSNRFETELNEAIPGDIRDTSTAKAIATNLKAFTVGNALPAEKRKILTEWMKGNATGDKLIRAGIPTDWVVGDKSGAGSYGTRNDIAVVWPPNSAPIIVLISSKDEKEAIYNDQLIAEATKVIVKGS

MIC [1]	Compound	Ki [2]
2 µg/mL (≈ 4.09 µM)	C[C@]1(COC(=O)Cc2ccc(O)c(O)c2)[C@H](C(=O)O)N2C(=O)/C(=C/c3ccccn3)[C@H]2S1(=O)=O	–
–	O=C(O)c1cccc(CS(=O)(=O)C(=O)NCB(O)O)c1	1.3 nM
–	O=C(NCB(O)O)S(=O)(=O)c1cc(Cl)cc(-c2nnn[nH]2)c1	0.2 nM
–	O=C(NCB(O)O)S(=O)(=O)c1cc(-c2nnn[nH]2)cc(C(F)(F)F)c1	0.05 nM
–	O=C(NCB(O)O)S(=O)(=O)c1ccnc(-c2nnn[nH]2)c1	0.8 nM
